Data on three molecules can be found in patent US20170128366A1, “PHARMACEUTICAL FORMULATIONS OF CHELATING AGENTS AS A METAL REMOVAL TREATMENT SYSTEM” (ZONEONE PHARMA, INC., priority 2013, published 2017).

Bounds are passed on as bounds.

The conditions of data set [1]: cited from earlier work.
For data set [2] the following is noted: in vivo, cited from earlier work.
For data set [3] the following is noted: patients who take deferasirox; cited from earlier work.
Data set [4] is described as follows: Active loading of DFO or doxorubicin into liposomes without membrane modifier, effect of temperature. Format: physicochemical. The settings on record: 10 min, pH 6.5. The protocol:
Active loading of DFO using no ethanol (or other membrane modifier) was done using liposomes composed of either a fluid-phase lipid (egg PC) or a gel-phase lipid (HSPC), specifically, egg PC liposomes (3:2 Chol, 0.5 M ammonium sulfate, 90 nm) or HSPC liposomes (3:2 Chol, 250 mM ammonium sulfate, 90 nm) were remote loaded with DFO at a temperature range of 40-120° C. (pH 8.0) for either 10 min or 30 min. […] The target drug to lipid ratio was 170 g DFO/mol PL. After the DFO was loaded the tubes were rapidly cooled to room temperature. Unencapsulated DFO was removed by dialysis at 4° C., and drug/PL concentrations were analyzed by HPLC as described in paragraph [0108].
This experiment was done in the absence of a chemical modifier. Liposomes were composed of either a fluid-phase lipid (egg PC) or a gel-phase lipid (HSPC), specifically, egg PC liposomes (3:2 Chol, 0.5 M ammonium sulfate, 90 nm) or HSPC liposomes (3:2 Chol, 0.25 M ammonium sulfate, 90 nm) were remote loaded with DFO or doxorubicin at a temperature range between 40-120° C. for 10 min. Doxorubicin concentration in the loading solution was 5 mg/mL and a target drug to lipid ratio of 170 g DFO/mol PL. DFO was loaded at pH 8 while doxorubicin was loaded at pH 6.5. Unencapsulated drug was removed by dialysis at 4° C., and drug/PL concentrations were analyzed by HPLC as described in paragraph [0108].

In the case of `CC(=O)N(O)CCCCCNC(=O)CCC(=O)N(O)CCCCCNC(=O)CCC(=O)N(O)CCCCCN` [DFO, Deferoxamine], the water solubility entry in data set [1] was “very water-soluble”. For the same molecule, in data set [2], the “absorption after oral administration / from the gastro-intestinal tract” value is listed as “poorly absorbed” and the “clearance from the circulation” value was “rapidly cleared”.
Regarding `O=C(O)c1ccc(-n2nc(-c3ccccc3O)nc2-c2ccccc2O)cc1` [deferasirox], the “risk of renal and hepatic failure” value in data set [3] is “higher risk”. In data set [1], the solubility entry is listed as “less than 2 mg/mL” and the water solubility entry is on record as “very low water-solubility”. Moreover, in data set [2], the “absorption after oral administration / from the gastro-intestinal tract” value is reported as “well absorbed” and the “clearance from the circulation” value is “cleared from the circulation slowly”.
Take `COc1cccc2c1C(=O)c1c(O)c3c(c(O)c1C2=O)C[C@@](O)(C(=O)CO)C[C@@H]3O[C@H]1C[C@H](N)[C@H](O)[C@H](C)O1` [doxorubicin]: the active loading efficiency in data set [4] (HSPC liposomes (3:2 Chol, 0.25 M ammonium sulfate), 60° C. and above) was > 90%. The active loading result in data set [4] (HSPC liposomes, 40° C.) is “loaded very poorly”; in data set [4] (egg PC liposomes (3:2 Chol, 0.5 M ammonium sulfate), 30-110° C.), “high efficiency”.
